Entries after “also recorded” stand apart in the source; their conditions may differ. Counter-ions that a name gives are not always drawn. Like-named read-outs stand apart in the source and are kept apart here.
How the values were obtained:
[1] = test system: Leishmania donovani (L. Don, MHOM/ET/67/L82 strain); assay: Leishmania protozoa proliferation inhibition test (amastigotes, Alamar Blue); type: cell-based; conditions: for Selective Toxicity Coefficient: (IC50 against rat L6 cells)/(IC50 against leishmania protozoa)
Procedure: In this test, Leishmania donovani (L. Don, MHOM/ET/67/L82 strain) was used. The protozoa were maintained in the Syrian Golden hamster, and amastigotes were collected from the spleen of an infected hamster. A SM medium supplemented with 10% heat-inactivated fetal bovine serum was used in the experiment, and the pH was adjusted to 5.4. The protozoa were grown at 37° C. under an atmosphere having a CO2 concentration of 5%. The activity with respect to inhibition of the proliferation of leishmania protozoa was studied for Compounds A, C, and D according to the invention for test, and for MKT-077, Compound X, and miltefosine (positive compound, existing drug) as comparative compounds. The structures of the compounds are as shown below. Each compound was dissolved in DMSO to give a test solution having a predetermined concentration. Each of the compounds to be used in the test was dissolved in DMSO to give a test solution having a concentration of 10 mg/mL. Assays were performed in 96-well culture plates, with each well containing 100 μL of the culture medium containing 10^5 amastigotes with or without the test compound at a predetermined serial dilution. The test was conducted twice. […] Each culture plate was mounted on a microplate fluorometer, and irradiated with light at an excitation wavelength of 536 nm. The intensity of fluorescence at 588 nm was measured, and the residual ratios of leishmania protozoa in the group added with the test solution and in the control were calculated. […] The selective toxicity coefficient, which is used as an index of the selectivity against leishmania protozoa, was calculated according to the following equation, and the drug efficacy was evaluated. Selective toxicity coefficient=(IC50 value of the test compound against rat L6 cells)/(IC50 value of the test compound against leishmania protozoa)

[2] = test system: Rat-derived L6 cells (rat skeletal myoblast cells); assay: Rat L6 cell proliferation inhibition test; type: cell-based
Procedure: Rat-derived L6 cells (rat skeletal myoblast cells) were used. The cells were cultured at 37° C. at a CO2 concentration of 5%, using, as a culture medium, a RPMI 1640 medium supplemented with 1% L-glutamine (200 mM) and 10% fetal bovine serum (FBS).
Each of the compounds to be tested was dissolved in DMSO to give a test solution having a concentration of 10 mg/mL.
96-well culture plates of which each well contained 4×10^4 cells in 100 μL of the culture medium were prepared. After 24 hours, a 3-fold dilution series was prepared according to an ordinary method by adding a medium containing the compound to be tested, and the test was conducted.
After incubating the culture plates for 72 hours in an incubator, the plates were inspected with respect to proliferation activity. The inspection was conducted as follows. 10 μL of the Alamar Blue aqueous solution as described above was added to each well, and the plates were incubated for another 2 hours. Then, the culture plates were mounted on a microplate fluorometer, and irradiated with light at an excitation wavelength of 536 nm. The intensity of fluorescence at 588 nm was measured, and the residual ratios of L6 cells in the group added with the test solution and in the control were calculated.
The 50% proliferation inhibitory concentration (IC50) values were determined based on the residual ratios of cells obtained above, and the results are shown in Table 1. In Table 1, “ND” represents that the test was not conducted.

[3] = test system: leishmania protozoa in macrophages (L. Don); assay: Leishmania protozoa proliferation inhibition test in macrophages; type: cell-based, Leishmania donovani; conditions: amastigotes in murine peritoneal macrophages, 4 days incubation, number of infected macrophages
Procedure: The inhibitory activity on the proliferation of leishmania protozoa in macrophages was examined for Compounds A and B according to the invention and comparative compounds MKT-077, Compound X, Compound Y, Compound Z, and miltefosine (positive compound, existing drug). The structures of the compounds are as shown below. Peritoneal macrophages from NMRI mice are collected 1 day after stimulation of macrophage production with an intraperitoneal injection of 2 mL of a 2% potato starch suspension. The present test was conducted at 37° C. under an atmosphere having a CO2 concentration of 5%. Each of the compounds to be used in the test was dissolved in DMSO to give a test solution having a predetermined concentration. […] After 24 hours, 100 μL of a suspension containing amastigotes (1.2×10^6/mL) was further added to each well, giving a suspension having a amastigotes/macrophages ratio of 3/1. The amastigotes were prepared in the same manner as above, and suspended in the RPMI/FBS medium. After 24 hours, the medium containing free amastigotes was removed, the cells were washed once with medium, and fresh media containing the test compound at serial dilutions (four 3-fold dilutions for each compound) were added to the wells. […] The IC50 values were determined based on the number of infected macrophages.

[4] = test system: L. donovani (strain MHOM/ET/67/HU3); assay: Anti-leishmania activity test using mice infected with leishmania; type: in vivo, Female BALB/c mice; conditions: amastigotes per 500 liver cells
Procedure: Compound A was used as the test compound in this test. Further, a pentostam-sensitive L. donovani (strain MHOM/ET/67/HU3) was used in this test, and the protozoa were maintained in Syrian Golden hamsters, and amastigotes were isolated from spleen cells of the infected hamster. Then, an inoculum containing 7.5×10^7 amastigotes/mL in RPMI 1640 was prepared. Female BALB/c mice (20 g) were infected with the amastigotes by intravenous injection at the tail vein on day 0. On day 7 after infection, one mouse was sacrificed, liver smears were methanol-fixed and Giemsa-stained, thereby confirming infection. The test compound was dissolved in an aqueous solution containing 10% ethanol and 5% glucose, and administered to the mice once a day for 5 days from day 7 to day 11. 3 days after the completion of the administration of the drug, livers were removed and weighed, and smears were methanol-fixed and then Giemsa-stained. The number of amastigotes (average value) per 500 liver cells was determined by counting, and the infection inhibition rate was determined based on the comparison thereof with mice that had not been treated with the drug. Infection inhibition rate (%)=[1−(b−a)/(c−a)]×100 a: Initial infection rate b: Infection rate in the mice treated with the test solution c: Infection rate in the control mice

[5] = test system: Peritoneal macrophages from NMRI mice; assay: Toxic effect on macrophages in the macrophage test; type: cell-based; conditions: murine peritoneal macrophages in the macrophage test
Procedure: Peritoneal macrophages from NMRI mice are collected 1 day after stimulation of macrophage production with an intraperitoneal injection of 2 mL of a 2% potato starch suspension. The present test was conducted at 37° C. under an atmosphere having a CO2 concentration of 5%. Each of the compounds to be used in the test was dissolved in DMSO to give a test solution having a predetermined concentration.
100 μL of a murine macrophage suspension (4×10^5/mL) in a RPMI 1640 medium containing bicarbonate and N-2-hydroxyethylpiperazine-N′-2-ethanesulfonic acid (HEPES) and supplemented with 10% heat-inactivated fetal bovine serum (RPMI/FBS medium) was added to wells of 96-well culture plates. After 24 hours, 100 μL of a suspension containing amastigotes (1.2×10^6/mL) was further added to each well, giving a suspension having a amastigotes/macrophages ratio of 3/1. The amastigotes were prepared in the same manner as above, and suspended in the RPMI/FBS medium. After 24 hours, the medium containing free amastigotes was removed, the cells were washed once with medium, and fresh media containing the test compound at serial dilutions (four 3-fold dilutions for each compound) were added to the wells. The growth of the protozoa in samples treated with the test-compound-containing media was compared with that of the control. Specifically, after 4 days of incubation, the samples were fixed with methanol, and thereafter stained with a 10% Giemsa solution. The IC50 values were determined based on the number of infected macrophages.
It is unexpected and surprising finding that such a harsh toxic effect against macrophages is reduced by introduction of a halogen atom, particularly a fluorine atom, according to the invention, and anti-leishmania activity is manifested.

[6] = Leishmania donovani, 72 h, pH 5.4, read-out: 50% Proliferation Inhibitory Concentration IC50 L. Don, amastigotes, 72 hours incubation, pH 5.4, Alamar Blue
[7] = Rattus norvegicus, L6, 72 h, read-out: 50% Proliferation Inhibitory Concentration IC50 L-6 Cells, rat L6 cells, 72 hours incubation, Alamar Blue

Question: Which melting point does the source give for `CCn1c(=O)/c(=C/C=C2\Sc3ccccc3N2C)s/c1=C\c1sc2ccc(F)cc2[n+]1C` (as salt: maleate) [Compound C, 2-((3-ethyl-5-(2-(3-methylbenzo[d]thiazol-2(3H)-ylidene)ethylidene)-4-oxothiazolidin-2-ylidene)methyl)-5-fluoro-3-methylbenzo[d]thiazol-3-ium maleate] here?
Answer: 260.1 to 260.8 °C

Question: Which IC50 ([1]; Leishmania donovani, amastigotes, 72 hours incubation, pH 5.4, Alamar Blue, read-out: 50% Proliferation Inhibitory Concentration IC50 L. Don) does the source give for `CCn1c(=O)/c(=C/C=C2\Sc3ccccc3N2C)s/c1=C\c1sc2ccc(F)cc2[n+]1C.[Cl-]` [Compound A, 2-((3-ethyl-5-(2-(3-methylbenzo[d]thiazole-2(3H)-ylidene)ethylidene)-4-oxothiazolidine-2-ylidene)methyl-5-fluoro-3-methylbenzo[d]thiazole-3-ium chloride] here?
Answer: 11 nM

Question: What about the IC50 ([2]; rat L6 cells, 72 hours incubation, Alamar Blue, read-out: 50% Proliferation Inhibitory Concentration IC50 L-6 Cells) of the same compound?
Answer: > 173000 nM

Question: And the IC50 ([3]; Leishmania, Macrophage, 96 h)?
Answer: 353 nM

Question: With `CCn1c(=O)/c(=C/C=C2\Sc3ccccc3N2C)s/c1=C\c1sc2ccc(F)cc2[n+]1C.[Cl-]` [Compound A] as the compound, how does the “Selective Toxicity Coefficient” value [1] read?
Answer: >15,000

Question: What about the “Toxicity toward normal cells” value ([2]; rat L6 cells) of the same compound?
Answer: only a weak toxicity toward normal cells

Question: What about the melting point of the same compound?
Answer: 274.5 to 275.6 °C

Question: What about the “Infection Inhibition Rate” value ([4]; intravenous injection 0.20 mg/kg/day × 5 days) of the same compound?
Answer: 16.1%

Question: What about the “Infection Inhibition Rate” value ([4]; intravenous injection 1.30 mg/kg/day × 5 days) of the same compound?
Answer: 94.9%

Question: What about the “Infection Inhibition Rate” value ([4]; intravenous injection 4.10 mg/kg/day × 5 days) of the same compound?
Answer: 97.1%

Question: Which “Selective Toxicity Coefficient” value [1] does the source give for `CCn1c(=O)/c(=C/C=C2\Sc3ccccc3N2C)s/c1=C\c1sc2ccc(F)cc2[n+]1C` [Compound C, 2-((3-ethyl-5-(2-(3-methylbenzo[d]thiazol-2(3H)-ylidene)ethylidene)-4-oxothiazolidin-2-ylidene)methyl)-5-fluoro-3-methylbenzo[d]thiazol-3-ium maleate] here?
Answer: 2,870

Question: What about the IC50 [1, 6] of the same compound?
Answer: 25 nM

Question: And the IC50 [2, 7]?
Answer: 71700 nM

Question: And the “Toxicity toward normal cells” value ([2]; rat L6 cells)?
Answer: only a weak toxicity toward normal cells

Question: With `CCn1c(=O)/c(=C/C=C2\Sc3ccccc3N2C)s/c1=C\c1sc2ccc(F)cc2[n+]1C` [Compound D, 2-((3-ethyl-5-(2-(3-methylbenzo[d]thiazol-2(3H)-ylidene)ethylidene)-4-oxothiazolidin-2-ylidene)methyl)-5-fluoro-3-methylbenzo[d]thiazol-3-ium methanesulfonate] as the compound, how does the “Selective Toxicity Coefficient” value ([1]; methanesulfonate) read?
Answer: 4,220

Question: And the IC50 ([1]; read-out: 50% Proliferation Inhibitory Concentration IC50 L. Don, amastigotes, 72 hours incubation, pH 5.4, Alamar Blue, methanesulfonate)?
Answer: 20 nM

Question: And the IC50 ([2]; read-out: 50% Proliferation Inhibitory Concentration IC50 L-6 Cells, rat L6 cells, 72 hours incubation, Alamar Blue, methanesulfonate)?
Answer: 84500 nM

Question: Which “Selective Toxicity Coefficient” value [1] does the source give for `CCn1c(=O)/c(=C/C=C2\Sc3ccccc3N2C)s/c1=C\c1sc2ccccc2[n+]1C` [Compound X, reference compound] here?
Answer: 2,400

Question: What about the IC50 [1, 6] of the same compound?
Answer: 52 nM

Question: What about the “Toxic effect against macrophages” value [5] of the same compound?
Answer: Could not be tested as the macrophages died

Question: What about the IC50 [2, 7] of the same compound?
Answer: 125000 nM

Question: With `CCN1/C(=C/C=c2\s/c(=C\c3sc4c5ccccc5ccc4[n+]3CC)n(CC)c2=O)Sc2ccc3ccccc3c21` [Compound Y] as the compound, how does the “Toxic effect against macrophages” value [5] read?
Answer: macrophages were killed by strong toxic effects; also recorded: Could not be tested as the macrophages died

Question: Which “Toxic effect against macrophages” value [5] does the source give for `CCN1CCS/C1=C\C=c1/s/c(=C\c2sc3c4ccccc4ccc3[n+]2CCO)n(CC)c1=O` [Compound Z] here?
Answer: macrophages were killed by strong toxic effects; also recorded: Could not be tested as the macrophages died

Question: With `CCCCCCCCCCCCCCCCOP(=O)([O-])OCC[N+](C)(C)C` [Miltefosine, miltefosine, reference compound] as the compound, how does the IC50 ([1]; amastigotes, 72 hours incubation, pH 5.4, Alamar Blue, read-out: 50% Proliferation Inhibitory Concentration IC50 L. Don) read?
Answer: 430 nM

Question: What about the IC50 [3] of the same compound?
Answer: 811 nM
